Results from patent US8017828B2, “Utilization of rare sugars in plant or microorganism” (Shikoku Research Institute Incorporated, priority 2004, dated 2011).

Legend:
Bletilla striata = test: Growth and bulb formation of Bletilla striata seedlings in tissue culture; format: in vivo
Description: Seedling plants of Bletilla striata obtained by sterile sowing were used in an experiment.
As for the Bletilla striata, by using ½ strength MS medium supplemented with D-psicose, D-allose, D-glucose or D-frucose at a concentration of from 0.005% to 0.05% (w/v), the seedling plants were aseptically transplanted on Feb. 27, 2003, and then, cultivation was carried out under the same conditions as those of the strawberry in Example 3. Then, on Jun. 30, 2003, a survey was carried out with regard to the growth conditions of aerial part and underground part, the number of buds, the ratio of bulb formation, the bulb size and the like.

[1] = tested on: Brassica rapa var. amplexicaulis (variety: “Haru Ichiban”); test: Foliar spraying of sugar on Brassica rapa var. amplexicaulis; format: in vivo; settings: 0.5% solution sprayed; for Terminal bud weight: control (water) 3.0; for Stem diameter: control (water) 22.8; for Number of lateral buds: control (water) 32.3; for Plant length: control (water) 49.3; for Total weight of lateral buds: control (water) 235.3
Text: Brassica rapa var. amplexicaulis is a vegetable in the Brassica family, and flower buds are harvested and used. As the same species of vegetables, broccoli, cauliflower and the like are exemplified, which are important horticultural crops. As for such a vegetable, development of flower buds has a large effect on the crop yield. Therefore, during the house cultivation of Brassica rapa var. amplexicaulis (variety: “Haru Ichiban”), foliar spraying of a sugar solution at a concentration of 0.5% (w/v) was carried out and effects on the growth and the development of flower buds were examined. The seeds of Brassica rapa var. amplexicaulis were sown in a 128-cell tray on Oct. 23, 2003 and raised for about 20 days. Then, the raised seedlings were transplanted for permanent planting with a planting distance of 40 cm on two rows with an inter row space of 50 cm in separate beds filled with soil for cultivation “Hana to Yasai no Tsuchi (garden soil for flowers and vegetables)” (Kurokawa Shubyo En) on Nov. 12, 2003. The cultivation was carried out by a simple fertigation system, and irrigation was carried out for 1 hour on a daily basis with a 2,000-fold dilution of Hyponex through an irrigation tube. The cultivation was carried out in a vinyl house without heating with side windows open. From Dec. 18, 2003, water or a 0.5% (w/v) sugar solution was sprayed onto the whole plant on a three times weekly basis. As for the types of sugars, D-glucose, D-fructose and D-psicose were used and five plants were cultivated for each test plot. On Feb. 23, 2004, three plants of medium size were harvested and a survey was carried out. The survey items were plant length, stem diameter, number of lateral buds, terminal bud weight, total weight of lateral buds and the like.

Cymbidium = test: Growth of Cymbidium flask seedlings in tissue culture; format: in vivo; settings: 0.005% in MS medium; for Number of lateral buds: non 0; for Aerial part weight: non 2.1; for Underground part weight: non 3.8; for Number of roots: non 10.8
Text: (§1) Flask seedlings of Phalaenopsis orchid and Cymbidium obtained by tissue culture were used in an experiment.
As for Cymbidium, in the same manner as the above Phalaenopsis orchid, MS medium supplemented with D-psicose, D-glucose, D-fructose or D-allose was used, and the flask seedlings were aseptically transplanted on Oct. 4, 2004. At this time, 4 or 5 leaves and 2 roots were left and the rest of them were cut off using a knife. As for the number of seedlings, 4 seedlings were used for 1 test plot, and glass bottles with a capacity of 900 ml and having a hole with a diameter of about 1 cm for preventing dew condensation made in the upper region was used as culture containers. The cultivation was carried out in a culture chamber at 25° C. and 5,000 Lux (12-hour day length) Then, on Feb. 1, 2005, a survey was carried out with regard to the growth conditions of aerial part and underground part, the number of roots and the number of lateral buds. The results are shown in Table 9 (effect of addition of rare sugar on the growth of seedlings of Cymbidium).

[2] = tested on: Pythium ultimum IFO 32426 strain; test: Oospore formation of Pythium ultimum in sugar solution; format: cell-based; settings: 0.05% (w/v) sugar solution, 23° C., 4 days
Description: With regard to Pythium ultimum that causes damping-off of spinach and the like, an effect of a rare sugar on oospore formation was examined.
First, as the Pythium ultimum, IFO 32426 strain was used, and static culture thereof was carried out with 200 ml of V8 medium at 23° C. for 1 week. The resulting mycelial mat was well washed with sterile water and divided into 16 equal parts with forceps. This mycerial body was disentangled uniformly to form a small piece and immersed in 20 ml of a sugar solution at a concentration of 0.05% (w/v) and let stand at 23° C. for 4 days. […] Further, the same experiment was carried out using Pythium zingiberum IFO 30817 strain.

Phalaenopsis orchid = test: Growth of Phalaenopsis orchid flask seedlings in tissue culture; format: in vivo; settings: 0.005% in MS medium; for Underground part weight: non 2.9; for Aerial part weight: non 4.7; for Number of roots: non 12.5
Description: as §1
As for Phalaenopsis orchid, MS medium supplemented with D-psicose, D-glucose or D-fructose at a concentration of 0.005% (w/v) was used, and the flask seedlings were aseptically transplanted on Sep. 6, 2004. As for the number of seedlings, 4 seedlings were used for 1 test plot, and glass bottles with a capacity of 500 ml and having a hole with a diameter of about 1 cm for preventing dew condensation made in the upper region was used as culture containers. The cultivation was carried out in a culture chamber at 25° C. and 5,000 Lux (12-hour day length) Then, on Jan. 24, 2005, a survey was carried out with regard to the growth conditions of aerial part and underground part and the number of roots. The results are shown in Table 8 (effect of addition of D-psicose on the growth of seedlings of Phalaenopsis orchid).

For `O=C[C@H](O)[C@H](O)[C@H](O)[C@H](O)CO` [D-allose], the “growth when the concentration added to the medium was increased” value (Bletilla striata; increased (high) concentration in medium) was “the growth thereof was delayed”, the Aerial part weight (Bletilla striata; sugar 0.005% in medium) was 0.19 g and the Bulb size (Bletilla striata; sugar 0.005% in medium) was 4.5 mm. It also gave a Maximum plant length (Bletilla striata; sugar 0.005% in medium) of 7.6 cm, a Maximum root length (Bletilla striata; sugar 0.005% in medium) of 4.2 cm and a Number of buds (Bletilla striata; sugar 0.005% in medium) of 3.4. The Number of leaves (Bletilla striata; sugar 0.005% in medium) was 4.2, the “Ratio of bulb formation” value (Bletilla striata; sugar 0.005% in medium) was 84% and the Underground part weight (Bletilla striata; sugar 0.005% in medium) was 0.10 g. The Aerial part weight (Bletilla striata; sugar 0.02% in medium) was 0.19 g, the Bulb size (Bletilla striata; sugar 0.02% in medium) was 4.2 mm and the Maximum plant length (Bletilla striata; sugar 0.02% in medium) was 7.5 cm. It also gave a Maximum root length (Bletilla striata; sugar 0.02% in medium) of 4.1 cm, a Number of buds (Bletilla striata; sugar 0.02% in medium) of 3.6 and a Number of leaves (Bletilla striata; sugar 0.02% in medium) of 3.9. The “Ratio of bulb formation” value (Bletilla striata; sugar 0.02% in medium) was 85%, the Underground part weight (Bletilla striata; sugar 0.02% in medium) was 0.12 g and the Aerial part weight (Bletilla striata; sugar 0.05% in medium) was 0.25 g. It also gave a Bulb size (Bletilla striata; sugar 0.05% in medium) of 4.9 mm, a Maximum plant length (Bletilla striata; sugar 0.05% in medium) of 7.7 cm and a Maximum root length (Bletilla striata; sugar 0.05% in medium) of 4.2 cm. The Number of buds (Bletilla striata; sugar 0.05% in medium) was 2.7, the Number of leaves (Bletilla striata; sugar 0.05% in medium) was 4.3 and the “Ratio of bulb formation” value (Bletilla striata; sugar 0.05% in medium) was 85%. It also gave an Underground part weight (Bletilla striata; sugar 0.05% in medium) of 0.12 g, a Terminal bud weight [1] of 7.9 g and a Stem diameter [1] of 23.6 mm. For the same compound, the “Number of lateral buds” value [1] was 38.0, the Plant length [1] was 60.7 cm and the “Total weight of lateral buds” value [1] was 222.5 g. For the same compound, the “Number of lateral buds” value (Cymbidium) was 3.8 buds, the Aerial part weight (Cymbidium) was 2.7 g and the Underground part weight (Cymbidium) was 4.0 g. For the same compound, the Number of roots (Cymbidium) was 12.8 roots and the oospore formation [2] was “not observed at all”.
Compound `O=C(CO)[C@@H](O)[C@H](O)[C@H](O)CO` [D-fructose, reference compound] has an Aerial part weight (Bletilla striata; sugar 0.005% in medium) of 0.16 g, a Bulb size (Bletilla striata; sugar 0.005% in medium) of 5.2 mm and a Maximum plant length (Bletilla striata; sugar 0.005% in medium) of 6.5 cm. The Maximum root length (Bletilla striata; sugar 0.005% in medium) was 4.6 cm, the Number of buds (Bletilla striata; sugar 0.005% in medium) was 3.7 and the Number of leaves (Bletilla striata; sugar 0.005% in medium) was 3.5. For the same compound, the “Ratio of bulb formation” value (Bletilla striata; sugar 0.005% in medium) was 44%, the Underground part weight (Bletilla striata; sugar 0.005% in medium) was 0.15 g and the Aerial part weight (Bletilla striata; sugar 0.02% in medium) was 0.19 g. It also gave a Bulb size (Bletilla striata; sugar 0.02% in medium) of 4.5 mm, a Maximum plant length (Bletilla striata; sugar 0.02% in medium) of 6.6 cm and a Maximum root length (Bletilla striata; sugar 0.02% in medium) of 5.1 cm. The Number of buds (Bletilla striata; sugar 0.02% in medium) was 3.3, the Number of leaves (Bletilla striata; sugar 0.02% in medium) was 4.6 and the “Ratio of bulb formation” value (Bletilla striata; sugar 0.02% in medium) was 67%. It also gave an Underground part weight (Bletilla striata; sugar 0.02% in medium) of 0.14 g, an Aerial part weight (Bletilla striata; sugar 0.05% in medium) of 0.19 g and a Bulb size (Bletilla striata; sugar 0.05% in medium) of 4.7 mm. For the same compound, the Maximum plant length (Bletilla striata; sugar 0.05% in medium) was 7.3 cm, the Maximum root length (Bletilla striata; sugar 0.05% in medium) was 4.1 cm and the Number of buds (Bletilla striata; sugar 0.05% in medium) was 3.3. The Number of leaves (Bletilla striata; sugar 0.05% in medium) was 4.0, the “Ratio of bulb formation” value (Bletilla striata; sugar 0.05% in medium) was 69% and the Underground part weight (Bletilla striata; sugar 0.05% in medium) was 0.10 g. The Terminal bud weight [1] was 7.4 g, the Stem diameter [1] was 19.9 mm and the “Number of lateral buds” value [1] was 41.3. For the same compound, the Plant length [1] was 55.8 cm, the “Total weight of lateral buds” value [1] was 231.1 g and the Underground part weight (Phalaenopsis orchid) was 4.0 g. The Aerial part weight (Phalaenopsis orchid) was 5.7 g, the Number of roots (Phalaenopsis orchid) was 14.8 roots and the “Number of lateral buds” value (Cymbidium) was 0 buds. It also gave an Aerial part weight (Cymbidium) of 2.0 g, an Underground part weight (Cymbidium) of 3.8 g and a Number of roots (Cymbidium) of 10.0 roots. The oospore formation [2] was “no effect”.
`O=C[C@H](O)[C@@H](O)[C@H](O)[C@H](O)CO` [D-glucose, reference compound] showed an Aerial part weight (Bletilla striata; sugar 0.005% in medium) of 0.15 g, a Bulb size (Bletilla striata; sugar 0.005% in medium) of 5.1 mm and a Maximum plant length (Bletilla striata; sugar 0.005% in medium) of 7.3 cm. The Maximum root length (Bletilla striata; sugar 0.005% in medium) was 4.9 cm, the Number of buds (Bletilla striata; sugar 0.005% in medium) was 3.7 and the Number of leaves (Bletilla striata; sugar 0.005% in medium) was 4.1. The “Ratio of bulb formation” value (Bletilla striata; sugar 0.005% in medium) was 37%, the Underground part weight (Bletilla striata; sugar 0.005% in medium) was 0.13 g and the Aerial part weight (Bletilla striata; sugar 0.02% in medium) was 0.20 g. The Bulb size (Bletilla striata; sugar 0.02% in medium) was 5.7 mm, the Maximum plant length (Bletilla striata; sugar 0.02% in medium) was 7.2 cm and the Maximum root length (Bletilla striata; sugar 0.02% in medium) was 5.1 cm. The Number of buds (Bletilla striata; sugar 0.02% in medium) was 3.4, the Number of leaves (Bletilla striata; sugar 0.02% in medium) was 3.9 and the “Ratio of bulb formation” value (Bletilla striata; sugar 0.02% in medium) was 59%. It also gave an Underground part weight (Bletilla striata; sugar 0.02% in medium) of 0.18 g, an Aerial part weight (Bletilla striata; sugar 0.05% in medium) of 0.18 g and a Bulb size (Bletilla striata; sugar 0.05% in medium) of 5.2 mm. It also gave a Maximum plant length (Bletilla striata; sugar 0.05% in medium) of 6.5 cm, a Maximum root length (Bletilla striata; sugar 0.05% in medium) of 6.1 cm and a Number of buds (Bletilla striata; sugar 0.05% in medium) of 3.4. The Number of leaves (Bletilla striata; sugar 0.05% in medium) was 4.0, the “Ratio of bulb formation” value (Bletilla striata; sugar 0.05% in medium) was 45% and the Underground part weight (Bletilla striata; sugar 0.05% in medium) was 0.14 g. For the same compound, the Terminal bud weight [1] was 5.7 g, the Stem diameter [1] was 20.6 mm and the “Number of lateral buds” value [1] was 32.0. The Plant length [1] was 56.3 cm, the “Total weight of lateral buds” value [1] was 198.1 g and the Underground part weight (Phalaenopsis orchid) was 3.7 g. For the same compound, the Aerial part weight (Phalaenopsis orchid) was 5.1 g, the Number of roots (Phalaenopsis orchid) was 12.3 roots and the “Number of lateral buds” value (Cymbidium) was 0 buds. For the same compound, the Aerial part weight (Cymbidium) was 1.9 g, the Underground part weight (Cymbidium) was 2.9 g and the Number of roots (Cymbidium) was 9.5 roots. The oospore formation [2] was “no effect”.
